Test results: ChEMBL document CHEMBL3046846, “Synthesis of N-Alkyl-2, 3-dimethyl-5-[N-(5-halo-2-methylphenyl)carbamoyl]-6-pyrazinecarboxamides and Their Herbicidal Activity” (J Pestic Sci, 1997)

Columns and labels:
Veronica persica [1] = assay: Herbicidal activity against Veronica persica at 500 g/ha after 2 weeks; assay type: functional
Galium spurium [2] = assay: Herbicidal activity against Galium spurium var. echinospermon (Wally.) Hayek at 500 g/ha after 2 weeks; assay type: functional
Xanthium strumarium [3] = assay: Herbicidal activity against Xanthium strumarium (cocklebur) 500 g/ha after 2 weeks; assay type: functional
Abutilon theophrasti [4] = assay: Herbicidal activity against Abutilon theophrasti (velvetleaf) at 500 g/ha after 2 weeks; assay type: functional
Avena fatua [5] = assay: Herbicidal activity against Avena fatua at 500 g/ha after 2 weeks; assay type: functional
Echinochloa crus-galli [6] = assay: Herbicidal activity against Echinochloa crus-galli (barnyard grass) at 500 g/ha after 2 weeks; assay type: functional
Glycine max [7] = assay: Herbicidal activity against Glycine max (soybean) at 500 g/ha after 2 weeks; assay type: organism-based; settings: in vivo, 336 h
Triticum aestivum [8] = assay: Herbicidal activity against Triticum aestivum (wheat) at 500 g/ha after 2 weeks; assay type: ADME, organism-based; settings: in vivo, 336 h
Veronica persica [9] = assay: Herbicidal activity against Veronica persica at 250 g/ha after 2 weeks; assay type: functional
Galium spurium [10] = assay: Herbicidal activity against Galium spurium var. echinospermon (Wally.) Hayek at 250 g/ha after 2 weeks; assay type: functional
Xanthium strumarium [11] = assay: Herbicidal activity against Xanthium strumarium (cocklebur) 250 g/ha after 2 weeks; assay type: functional
Abutilon theophrasti [12] = assay: Herbicidal activity against Abutilon theophrasti (velvetleaf) at 250 g/ha after 2 weeks; assay type: functional
Echinochloa crus-galli [13] = assay: Herbicidal activity against Echinochloa crus-galli (barnyard grass) at 250 g/ha after 2 weeks; assay type: functional
Avena fatua [14] = assay: Herbicidal activity against Avena fatua at 250 g/ha after 2 weeks; assay type: functional
Glycine max [15] = assay: Herbicidal activity against Glycine max (soybean) at 250 g/ha after 2 weeks; assay type: organism-based; settings: in vivo, 336 h
Triticum aestivum [16] = assay: Herbicidal activity against Triticum aestivum (wheat) at 250 g/ha after 2 weeks; assay type: organism-based; settings: in vivo, 336 h
Veronica persica [17] = assay: Herbicidal activity against Veronica persica at 5000 g/ha after 2 weeks; assay type: functional
Galium spurium [18] = assay: Herbicidal activity against Galium spurium var. echinospermon (Wally.) Hayek at 5000 g/ha after 2 weeks; assay type: functional
Xanthium strumarium [19] = assay: Herbicidal activity against Xanthium strumarium (cocklebur) 5000 g/ha after 2 weeks; assay type: functional
Abutilon theophrasti [20] = assay: Herbicidal activity against Abutilon theophrasti (velvetleaf) at 5000 g/ha after 2 weeks; assay type: functional
Echinochloa crus-galli [21] = assay: Herbicidal activity against Echinochloa crus-galli (barnyard grass) at 5000 g/ha after 2 weeks; assay type: functional
Avena fatua [22] = assay: Herbicidal activity against Avena fatua at 5000 g/ha after 2 weeks; assay type: functional
Glycine max [23] = assay: Herbicidal activity against Glycine max (soybean) at 5000 g/ha after 2 weeks; assay type: organism-based; settings: in vivo, 336 h
Triticum aestivum [24] = assay: Herbicidal activity against Triticum aestivum (wheat) at 5000 g/ha after 2 weeks; assay type: ADME, organism-based; settings: in vivo, 336 h

Row | SMILES | Activity (Veronica persica [1]) [%] | Activity (Galium spurium [2]) [%] | Activity (Xanthium strumarium [3]) [%] | Activity (Abutilon theophrasti [4]) [%] | Activity (Avena fatua [5]) [%] | Activity (Echinochloa crus-galli [6]) [%] | Activity (Glycine max [7]) [%] | Activity (Triticum aestivum [8]) [%] | Activity (Veronica persica [9]) [%] | Activity (Galium spurium [10]) [%] | Activity (Xanthium strumarium [11]) [%] | Activity (Abutilon theophrasti [12]) [%] | Activity (Veronica persica [17]) [%] | Activity (Galium spurium [18]) [%] | Activity (Xanthium strumarium [19]) [%] | Activity (Abutilon theophrasti [20]) [%] | Activity (Echinochloa crus-galli [21]) [%] | Activity (Avena fatua [22]) [%] | Activity (Glycine max [23]) [%] | Activity (Triticum aestivum [24]) [%] | also measured
1 | CCCCNC(=O)c1nc(C)c(C)nc1C(=O)Nc1cc(Cl)ccc1C | 50 | <10 | <10 | <10 | <10 | <10 | < 10 | < 10 | 10 | <10 | <10 | <10 | 95 | 30 | 50 | 95 | 50 | <10 | < 10 | 30 | Activity (Echinochloa crus-galli [13]): <10%; Activity (Avena fatua [14]): <10%; Activity (Glycine max [15]): < 10%; Activity (Triticum aestivum [16]): < 10%
2 | Cc1ccc(F)cc1NC(=O)c1nc(C)c(C)nc1C(=O)NCC(C)C | 95 | <10 | 95 | 70 | 10 | <10 | < 10 | 10 | 95 | <10 | <10 | 30 | 95 | 30 | 95 | 95 | 30 | 50 | < 10 | 30 | Activity (Echinochloa crus-galli [13]): <10%; Activity (Avena fatua [14]): <10%; Activity (Glycine max [15]): < 10%; Activity (Triticum aestivum [16]): 10%
3 | CCNC(=O)c1nc(C)c(C)nc1C(=O)Nc1cc(Cl)ccc1C | 70 | <10 | 10 | <10 | <10 | <10 | < 10 | < 10 | <10 | <10 | <10 | <10 | 95 | 30 | 95 | 30 | 50 | <10 | < 10 | 10 | Activity (Echinochloa crus-galli [13]): <10%; Activity (Avena fatua [14]): <10%; Activity (Glycine max [15]): < 10%; Activity (Triticum aestivum [16]): < 10%
4 | CCC(C)NC(=O)c1nc(C)c(C)nc1C(=O)Nc1cc(Cl)ccc1C (racemic) | 70 | <10 | <10 | <10 | <10 | 10 | < 10 | < 10 | 70 | <10 | <10 | <10 | 95 | 95 | 95 | 95 | 95 | 50 | < 10 | 70 | Activity (Echinochloa crus-galli [13]): <10%; Activity (Avena fatua [14]): <10%; Activity (Glycine max [15]): < 10%; Activity (Triticum aestivum [16]): < 10%
5 | Cc1ccc(F)cc1NC(=O)c1nc(C)c(C)nc1C(=O)NC(C)C | 95 | <10 | 70 | 70 | 30 | 30 | < 10 | 10 | 70 | <10 | 10 | 50 | 95 | 70 | 70 | 50 | 50 | 30 | < 10 | 30 | Activity (Echinochloa crus-galli [13]): <10%; Activity (Avena fatua [14]): <10%; Activity (Glycine max [15]): < 10%; Activity (Triticum aestivum [16]): < 10%
6 | Cc1ccc(Cl)cc1NC(=O)c1nc(C)c(C)nc1C(=O)NCCC(C)C | – | – | – | – | – | – | – | – | – | – | – | – | 95 | 10 | 30 | 95 | 70 | 30 | < 10 | < 10 | –
7 | CC[C@H](C)NC(=O)c1nc(C)c(C)nc1C(=O)Nc1cc(Cl)ccc1C | 95 | <10 | <10 | <10 | <10 | <10 | < 10 | < 10 | 95 | <10 | <10 | <10 | 95 | 50 | 95 | 95 | 95 | 30 | < 10 | 30 | Activity (Echinochloa crus-galli [13]): <10%; Activity (Avena fatua [14]): <10%; Activity (Glycine max [15]): < 10%; Activity (Triticum aestivum [16]): < 10%
8 | CCCCCNC(=O)c1nc(C)c(C)nc1C(=O)Nc1cc(Cl)ccc1C | – | – | – | – | – | – | – | – | – | – | – | – | <10 | <10 | <10 | <10 | <10 | <10 | < 10 | < 10 | –
